Laboratory results taken from ChEMBL document CHEMBL2202991, “The effect of the length and flexibility of the side chain of basic amino acids on the binding of antimicrobial peptides to zwitterionic and anionic membrane model systems” (Bioorg Med Chem, 2012).
The source made the active and inactive calls. The calls are words filed in the database; no cut-off is given here. Non-standard residues stand in square brackets, D forms with d. Residues, ends and D or L forms follow the SMILES beside them. ξ: configuration not given here. Pro(3ξ,4ξ-(CH2)4) = O=C(O)[C@H]1NCC2CCCCC21; Tic = O=C(O)[C@@H]1Cc2ccccc2CN1; ξR = N=C(N)NCCCC(N)C(=O)O; Dab = NCC[C@H](N)C(=O)O; Dap = NC[C@H](N)C(=O)O

Tests used:
Lipid bilayer [1] = assay: Binding affinity to POPC large unilamellar vesicle at 100 uM by circular dichroism analysis
Lipid bilayer [2] = assay: Binding affinity to POPC large unilamellar vesicles assessed as calcein leakage at 4 to 20 uM measured up to 90 mins by fluorimetric analysis
Lipid bilayer [3] = assay: Binding affinity to POPC large unilamellar vesicle assessed as lipid:compound molar ratio for complete interaction at 0.2 mM by isothermal titration calorimetric analysis
Lipid bilayer [4] = assay: Binding affinity to 4:1 POPC/POPG large unilamellar vesicle assessed as lipid:compound molar ratio required for integration into membrane at 200 uM by pseudo titration-based circular dichroism analysis
Lipid bilayer [5] = assay: Binding affinity to 4:1 POPC/POPG large unilamellar vesicles assessed as calcein leakage at 4 to 20 uM measured up to 90 mins by fluorimetric analysis
Lipid bilayer [6] = assay: Binding affinity to 4:1 POPC/POPG small unilamellar vesicle at 100 uM by circular dichroism analysis
Lipid bilayer [7] = assay: Binding affinity to POPC small unilamellar vesicle at 100 uM by circular dichroism analysis
Lipid bilayer [8] = assay: Binding affinity to POPC large unilamellar vesicle at 0.2 mM by isothermal titration calorimetric analysis
Lipid bilayer [9] = assay: Binding affinity to 4:1 POPC/POPG large unilamellar vesicle assessed as lipid:compound molar ratio for complete interaction at 0.2 mM by isothermal titration calorimetric analysis
Lipid bilayer [10] = assay: Binding affinity to 4:1 POPC/POPG large unilamellar vesicle at 100 uM by circular dichroism analysis
Lipid bilayer [11] = assay: Binding affinity to POPC large unilamellar vesicle at 100 uM by pseudo titration based circular dichroism analysis
[12] = Binding affinity to anionic sodium dodecyl sulfate micelle at 100 uM by circular dichroism analysis
[13] = Binding affinity to zwitterionic dodecylphosphocholine micelle at 100 uM by circular dichroism analysis
Lipid bilayer [14] = assay: Binding affinity to POPC large unilamellar vesicles assessed as calcein leakage at 20 uM measured up to 90 mins by fluorimetric analysis
Lipid bilayer [15] = assay: Binding affinity to POPC large unilamellar vesicle at 200 uM by pseudo titration based circular dichroism analysis
Lipid bilayer [16] = assay: Binding affinity to 4:1 POPC/POPG large unilamellar vesicle at 200 uM by pseudo titration-based circular dichroism analysis
Lipid bilayer [17] = assay: Binding affinity to 4:1 POPC/POPG large unilamellar vesicles assessed as calcein leakage at 20 uM measured up to 90 mins by fluorimetric analysis
Lipid bilayer [18] = assay: Binding affinity to POPC large unilamellar vesicle at 200 uM by circular dichroism analysis
Lipid bilayer [19] = assay: Binding affinity to POPC large unilamellar vesicles assessed as calcein leakage at 4 uM measured up to 90 mins by fluorimetric analysis
Lipid bilayer [20] = assay: Binding affinity to 4:1 POPC/POPG large unilamellar vesicle assessed as lipid:compound molar ratio required for integration into membrane at 100 uM by pseudo titration-based circular dichroism analysis
Lipid bilayer [21] = assay: Binding affinity to 4:1 POPC/POPG large unilamellar vesicles assessed as calcein leakage at 4 uM measured up to 90 mins by fluorimetric analysis

Row | SMILES | Activity (Lipid bilayer [1]) | Activity (Lipid bilayer [2]) | Activity (Lipid bilayer [3]) [molar ratio] | Activity (Lipid bilayer [4]) [molar ratio] | Activity (Lipid bilayer [5]) | Activity (Lipid bilayer [6]) | Activity (Lipid bilayer [7]) | Kb (Lipid bilayer [8]) [M⁻¹] | Activity (Lipid bilayer [9]) [molar ratio] | Activity (Lipid bilayer [10]) | Activity (Lipid bilayer [11]) | Activity [12] | Activity [13] | Activity (Lipid bilayer [14]) [%] | Activity (Lipid bilayer [15]) | Activity (Lipid bilayer [17]) [%] | Activity (Lipid bilayer [18]) | other results
1 | CC(=O)NCC(=O)N[C@@H](Cc1ccccc1)C(=O)N1Cc2ccccc2C[C@H]1C(=O)N1CC2CCCCC2[C@H]1C(=O)NCC(=O)NC(CCCNC(=N)N)C(=O)N1Cc2ccccc2C[C@H]1C(=O)N1CC2CCCCC2[C@H]1C(=O)NCC(=O)N[C@@H](Cc1ccccc1)C(=O)N1Cc2ccccc2C[C@H]1C(=O)N1CC2CCCCC2[C@H]1C(=O)NCC(=O)N[C@@H](CCCNC(=N)N)C(=O)N1Cc2ccccc2C[C@H]1C(=O)N[C@@H](CCCNC(=N)N)C(=O)N[C@@H](CCCNC(=N)N)C(=O)N[C@@H](CCCNC(=N)N)C(=O)N[C@@H](CCCNC(=N)N)C(N)=O (some centres not stated) (Ac-GF[Tic][Pro(3ξ,4ξ-(CH2)4)]G[ξR][Tic][Pro(3ξ,4ξ-(CH2)4)]GF[Tic][Pro(3ξ,4ξ-(CH2)4)]GR[Tic]RRRR-NH2) | Active |  | 150 |  |  | Active | Active | 479 | 30 | Active | Active | Active | Active | 60 |  | 90 |  | Activity (Lipid bilayer [19]): 60%; Activity (Lipid bilayer [20]): 52 molar ratio; Activity (Lipid bilayer [21]): 50%
2 | CC(=O)NCC(=O)N[C@@H](Cc1ccccc1)C(=O)N1Cc2ccccc2C[C@H]1C(=O)N1CC2CCCCC2[C@H]1C(=O)NCC(=O)N[C@@H](CCCCN)C(=O)N1Cc2ccccc2C[C@H]1C(=O)N1CC2CCCCC2[C@H]1C(=O)NCC(=O)N[C@@H](Cc1ccccc1)C(=O)N1Cc2ccccc2C[C@H]1C(=O)N1CC2CCCCC2[C@H]1C(=O)NCC(=O)N[C@@H](CCCCN)C(=O)N1Cc2ccccc2C[C@H]1C(=O)N[C@@H](CCCCN)C(=O)N[C@@H](CCCCN)C(=O)N[C@@H](CCCCN)C(=O)N[C@@H](CCCCN)C(N)=O (some centres not stated) (Ac-GF[Tic][Pro(3ξ,4ξ-(CH2)4)]GK[Tic][Pro(3ξ,4ξ-(CH2)4)]GF[Tic][Pro(3ξ,4ξ-(CH2)4)]GK[Tic]KKKK-NH2) |  |  | 120 | 39 |  | Active | Active | 211 | 30 | Active |  | Active | Active | 25 | Active | 40 | Active | 

Second part, led by results:

Row | Activity (Lipid bilayer [1]) | Activity (Lipid bilayer [2]) | Activity (Lipid bilayer [3]) [molar ratio] | Activity (Lipid bilayer [4]) [molar ratio] | Activity (Lipid bilayer [5]) | Activity (Lipid bilayer [6]) | Activity (Lipid bilayer [7]) | Kb (Lipid bilayer [8]) [M⁻¹] | Activity (Lipid bilayer [9]) [molar ratio] | Activity (Lipid bilayer [10]) | Activity (Lipid bilayer [11]) | Activity [12] | Activity [13] | Activity (Lipid bilayer [14]) [%] | Activity (Lipid bilayer [15]) | Activity (Lipid bilayer [17]) [%] | Activity (Lipid bilayer [18]) | SMILES | other results
3 | Active | Active | 130 | 36 | Active | Active | Active | 191 | 28 | Active | Active | Active | Active |  |  |  |  | CC(=O)NCC(=O)N[C@@H](Cc1ccccc1)C(=O)N1Cc2ccccc2C[C@H]1C(=O)N1CC2CCCCC2[C@@H]1C(=O)NCC(=O)N[C@H](CCCN)C(=O)N1Cc2ccccc2C[C@@H]1C(=O)N1CC2CCCCC2[C@H]1C(=O)NCC(=O)NC(Cc1ccccc1)C(=O)N1Cc2ccccc2C[C@@H]1C(=O)N1CC2CCCCC2[C@@H]1C(=O)NCC(=O)N[C@H](CCCN)C(=O)N1Cc2ccccc2C[C@@H]1C(=O)N[C@H](CCCN)C(=O)N[C@H](CCCN)C(=O)N[C@H](CCCN)C(=O)N[C@H](CCCN)C(N)=O (single isomer, unassigned) | 
4 | Active | Active | 130 | 22 | Active | Active | Active | 240 | 20 | Active | Active | Active | Active |  |  |  |  | CC(=O)NCC(=O)N[C@@H](Cc1ccccc1)C(=O)N1Cc2ccccc2C[C@H]1C(=O)N1CC2CCCCC2[C@H]1C(=O)NCC(=O)N[C@@H](CCN)C(=O)N1Cc2ccccc2C[C@H]1C(=O)N1CC2CCCCC2[C@H]1C(=O)NCC(=O)N[C@@H](Cc1ccccc1)C(=O)N1Cc2ccccc2C[C@H]1C(=O)N1CC2CCCCC2[C@H]1C(=O)NCC(=O)N[C@@H](CCN)C(=O)N1Cc2ccccc2C[C@H]1C(=O)N[C@@H](CCN)C(=O)N[C@@H](CCN)C(=O)N[C@@H](CCN)C(=O)N[C@@H](CCN)C(N)=O (some centres not stated) (Ac-GF[Tic][Pro(3ξ,4ξ-(CH2)4)]G[Dab][Tic][Pro(3ξ,4ξ-(CH2)4)]GF[Tic][Pro(3ξ,4ξ-(CH2)4)]G[Dab][Tic][Dab][Dab][Dab][Dab]-NH2) | 
5 |  |  | 55 |  |  | Active | Active | 570 | 55 | Active |  | Active | Active | 100 | Active | 100 | Active | CC(=O)NCC(=O)N[C@@H](Cc1ccccc1)C(=O)N1Cc2ccccc2C[C@H]1C(=O)N1CC2CCCCC2[C@H]1C(=O)NCC(=O)N[C@@H](CN)C(=O)N1Cc2ccccc2C[C@H]1C(=O)N1CC2CCCCC2[C@H]1C(=O)NCC(=O)N[C@@H](Cc1ccccc1)C(=O)N1Cc2ccccc2C[C@H]1C(=O)N1CC2CCCCC2[C@H]1C(=O)NCC(=O)N[C@@H](CN)C(=O)N1Cc2ccccc2C[C@H]1C(=O)N[C@@H](CN)C(=O)N[C@@H](CN)C(=O)N[C@@H](CN)C(=O)N[C@@H](CN)C(N)=O (some centres not stated) (Ac-GF[Tic][Pro(3ξ,4ξ-(CH2)4)]G[Dap][Tic][Pro(3ξ,4ξ-(CH2)4)]GF[Tic][Pro(3ξ,4ξ-(CH2)4)]G[Dap][Tic][Dap][Dap][Dap][Dap]-NH2) | Activity (Lipid bilayer [16]): Active
